These results are taken from US6265603A, “Inhibitors of isoprenyl transferase” (Eisai Co., Ltd., priority 1999, dated 2001).

The test system of one assay is H-ras. The experiment in a line: Inhibition of H-ras prenylation/processing in whole cells (H-ras (61 L) transformed NIH3T3 fibroblasts, Western blot). The assay is classed as cell-based. The following applies: for IC50: Mus musculus; for IC50 / H-ras processing, % inhibition @ 50: H-ras (61 L) transformed NIH3T3 fibroblasts, 24 h, 50 μM lovastatin as 100% reference; for H-ras processing, % inhibition @ 50: @ 50 [μM]. As to the method: The ability of compounds of the invention to inhibit H-ras farnesylation was determined. H-ras (61 L) transformed NIH3T3 fibroblasts were generously provided by C. Der, Univ. N. Carolina. These fibroblasts were treated for 24 h with 50 μM lovastatin or vehicle control or the indicated concentrations of inhibitor. Lovastatin is an HMG-CoA reductase inhibitor. HMG-CoA reductase is an essential enzyme in the cellular synthesis of the prenyl groups with which ras proteins are modified. The cells were lysed in 1% NP-40, 5 mM Tris-HCl (pH 8.0), 5 mM EDTA, 0.1 mM N-tosyl-L-phenylalanine chloromethyl ketone, 0.1 mM N-tosyl-L-lysine chloromethyl ketone, and 1 mM phenylmethylsulfonyl fluoride. The lysate was centrifuged (15000×g, 5 min.) and the supernatant was used as a cell extract. Total protein was separated by SDS-PAGE in 15% acrylamide gel. Processed ras can be differentiated from non-processed ras by its mobility in polyacrylamide gels. After transfer to IMMOBILON P™ membrane (Millipore), the blots were probed with LA069 mouse monoclonal antibody to H-ras (Quality Biotech). All Western blots were developed using ECL chemiluminescent reagents (Amersham) and the relative amounts of farnesylated and non-farnesylated ras were quantitated using the inhibition obtained by 50 μM lovastatin as 100% reference.
Sub-micromolar concentrations are sufficient to inhibit farnesylation of ras proteins in whole cells.
(In general: A western blot detects proteins with antibodies after separation by electrophoresis.)

In a further assay the target is FTase (Homo sapiens, UniProt P49354+P49356). The experiment in a line: In vitro inhibition of FTase-mediated prenylation (recombinant FTase, recombinant H-ras, [3H] farnesylpyrophosphate). The assay is classed as biochemical. The settings on record: 15 min, 37° C.; 3 μM recombinant H-ras, 440 nM [3H] farnesylpyrophosphate. As to the method: (§1) The ability of the disclosed inhibitor compounds to inhibit FTase was measured according to a published prenylation assay (Moores et al., J. Biol Chem. 266:14603 (1991)). Recombinant FTase with 3 μM recombinant H-ras and 440 nM [^3 H] farnesylpyrophosphate were used were used. The inhibitors were diluted in assay buffer, and each assay mixture was incubated 15 min. at 37° C. Where inhibition of GGTase I was measured, GGTase I with 5 μM recombinant, H-ras (61 L, CAIL) and 1 mM [^3 H] geranylgeranyl diphosphate were used.
(§2) Nanomolar concentrations of the indicated compounds were sufficient to inhibit farnesylation of ras proteins in vitro. For screening candidate compounds useful for the treatment of ras-associated tumors, the FTase assay is preferred. […] Substitutions which confer GGTase I specificity as taught herein also produced potent inhibitors of GGTase I.

The next assay deals with GGTase I (Homo sapiens, UniProt P49354+P53609). The experiment in a line: In vitro inhibition of GGTase I-mediated prenylation (H-ras (61 L, CAIL), [3H] geranylgeranyl diphosphate). The assay is classed as biochemical. The settings on record: 5 μM recombinant H-ras (61 L, CAIL), 1 mM [3H] geranylgeranyl diphosphate. As to the method:
as §1, §2

Assay [1] concerns H-ras (61 L) transformed NIH3T3 fibroblasts. The experiment in a line: Inhibition of tumor growth of H-ras (61 L) transformed NIH3T3 xenograft in athymic nude mice. The assay is classed as in vivo. The settings on record: 100, 50 and 25 mg/kg i.v. daily for 5 days; measured days 7, 10, 14. The protocol:
H-ras (61 L) transformed NIH3T3 fibroblasts were grown in Dulbecco's modified Eagle's medium supplemented with 10% heat-inactivated calf serum. 100 U/mL penicillin, 100 μg/mL streptomycin, and 0.75 mg/mL G418 (GIBCO) and incubated at 37° C. in 5% CO2. Cells were harvested from exponential-phase cultures with trypsin-EDTA, centrifuged at 160×g for 5 min, washed once with 10 mL cold Hank's balanced salt solution (HBSS, GIBCO), and resuspended at a concentration of 1×10^6 cells/mL.
Five week old female athymic nude mice were obtained from SLC (3371-8, Kotoummachi, Hamamatsu-shi, Shizuoka 431-11, Japan) and maintained under pathogen-free conditions. The mice were subcutaneously injected in the lateral flank with 1×10^5 H-ras transformed cells/mouse.
Inhibitor compound 1 was suspended in 5% glucose in a total injection volume of 0.2 mL. Three dosage concentrations were prepared, 100, 50 and 25 mg/kg. Compound 1 was intravenously injected daily in the tail vein for 5 consecutive days, starting the day after the implantation (day 0). The control group was injected with vehicle only. Body weight and tumor dimensions were measured at days 7, 10, and 14. Tumor volume was estimated by the following calculation: tumor volume=(0.5)(length×width×width). At day 14, each mouse was euthanized with CO2 (g), and each tumor was excised and weighed. […]

The IC50 is the midpoint of a concentration-inhibition curve.

A value given as a limit tells only on which side of the number the result lay.

In the assay on H-ras, `COC(=O)[C@H](CCSC)NC(=O)c1cc(OC[C@@H](/C=C/[C@@H](N)CS)C(C)C)ccc1C(C)C` [Compound 22] registered an IC50 of 0.122 µM.

Consider `CSCC[C@H](NC(=O)c1cc(OC[C@@H](/C=C/[C@@H](N)CS)C(C)C)ccc1C(C)C)C(=O)O` [Compound 9], for which the 50% inhibitory concentration (IC50) on FTase was determined as 0.022 µM; at GGTase I, 3.8 µM.

As for `COC(=O)C(CCSC)NC(=O)c1ccccc1OC[C@@H](/C=C/[C@@H](N)CS)C(C)C` (stereo partly drawn) [Compound 15], in the assay with H-ras, the IC50 amounted to 4.1 µM.

Take `CSCC[C@H](NC(=O)c1cc2ccccc2cc1OC[C@@H](/C=C/[C@@H](N)CS)C(C)C)C(=O)O` [Compound 3]: the results for the 50% inhibitory concentration (IC50) at FTase and on GGTase I were 0.5 µM and 1.7 µM, respectively.

For `CSCC[C@H](NC(=O)c1cc2ccccc2cc1OC/C=C/[C@@H](N)CS)C(=O)O` [Compound 6], the IC50 at FTase was found to be 1.3 µM; at GGTase I, 4.2 µM.

`COC(=O)[C@H](CCSC)NC(=O)c1cc(OCC[C@@H](N)CS)ccc1-c1ccccc1` [Compound 24]: the half-inhibitory concentration (IC50) in the assay on H-ras came out at 0.298 µM.

As for `CSCC[C@H](NC(=O)c1cccc(OC/C=C/[C@@H](N)CS)c1)C(=O)O` [Compound 7], the IC50 was 0.093 µM at FTase and 3 µM at GGTase I.

For `CSCC[C@H](NC(=O)c1cc(OCC[C@@H](C)CS)ccc1C(C)C)C(=O)O` [Compound 32], the half-maximal inhibitory concentration (IC50) on FTase stood at 0.47 µM; at GGTase I, 100 µM.

With `CSCC[C@H](NC(=O)c1cc(OC[C@@H](N)CS)ccc1-c1ccccc1)C(=O)O` [Compound 14], the 50% inhibitory concentration (IC50) stood at 0.015 µM on FTase and 0.13 µM at GGTase I.

For the compound `COC(=O)C(CCSC)NC(=O)c1cccc(OC/C=C/[C@@H](N)CS)c1` (stereo partly drawn) [Compound 20], the “H-ras processing, % inhibition @ 50” value with H-ras was found to be 38%.

In the assay on H-ras, `COC(=O)[C@H](CCSC)NC(=O)c1cccc(OC[C@@H](/C=C/[C@@H](N)CS)C(C)C)c1` [Compound 17] displayed an IC50 of 3.3 µM.

In the case of `CSCC[C@H](NC(=O)c1cccc(OC[C@@H](/C=C/[C@@H](N)CS)C(C)C)c1)C(=O)O` [Compound 4], the IC50 was found to be 0.03 µM at FTase and 1.9 µM at GGTase I.

Turning to `COC(=O)[C@H](CCSC)NC(=O)c1cc2ccccc2cc1OC/C=C/[C@@H](N)CS` [Compound 19], the “H-ras processing, % inhibition @ 50” value in the assay on H-ras is on record as 46%.

For the compound `CSCC[C@H](NC(=O)c1ccccc1OC[C@@H](/C=C/[C@@H](N)CS)C(C)C)C(=O)O` [Compound 2], the half-inhibitory concentration (IC50) is 0.045 µM at FTase and 1.9 µM at GGTase I.

`COC(=O)[C@H](CCSC)NC(=O)c1cc(OCC[C@@H](C)CS)ccc1C(C)C` [Compound 29] yielded an IC50 with H-ras of over 50 µM.

As for `COC(=O)[C@H](CCSC)NC(=O)c1cc(OC[C@@H](/C=C/[C@@H](N)CS)C(C)C)ccc1-c1ccccc1` [Compound 23], the IC50 in the assay on H-ras worked out at 31 µM.

On to `COC(=O)[C@H](CCSC)N(C)Cc1cc(OCC[C@@H](N)CS)ccc1C(C)C` [Compound 28], for which the “H-ras processing, % inhibition @ 50” value in the assay on H-ras is listed as 42%.

In the assay with H-ras, `COC(=O)[C@H](CCSC)NC(=O)c1cc(OC[C@@H](N)CS)ccc1C(C)C` [Compound 25] registered an IC50 of 3.1 µM.

Regarding `COC(=O)[C@H](CCSC)NC(=O)c1cc(COC[C@@H](N)CS)ccc1C(C)C` [Compound 27], the IC50 with H-ras was 0.049 µM.

Take `CSCC[C@H](NC(=O)c1cc(COC[C@@H](N)CS)ccc1C(C)C)C(=O)O` [Compound 30]: the half-inhibitory concentration (IC50) on FTase worked out at 0.015 µM; at GGTase I it was 0.93 µM.

In the assay with H-ras, `COC(=O)[C@H](CCSC)NC(=O)c1cc(OC[C@@H](N)CS)ccc1-c1ccccc1` [Compound 26] came in with an IC50 of 3.2 µM.

Turning to `CSCC[C@@H](C(=O)O)N(C)Cc1cc(OCC[C@@H](N)CS)ccc1C(C)C` [Compound 31], the results for the IC50 on FTase and at GGTase I were 0.35 µM and 8.9 µM, respectively.

For `COC(=O)[C@H](CCSC)NC(=O)c1cc(OCC[C@@H](N)CS)ccc1C(C)C` [Compound 1], in the assay on H-ras, half-maximal inhibition (IC50) required 0.039 µM. The “potency within the series (in words)” value in the assay with H-ras (statement in Formulations section, test not specified) is recorded as “the most potent compound of the series”. Also, the “inhibition of tumor growth / tumor volume (FIG. 1)” value in assay [1] was “inhibition of tumor growth”.

The compound `COC(=O)[C@H](CCSC)NC(=O)c1ccc(OC[C@@H](/C=C/[C@@H](N)CS)C(C)C)cc1` [Compound 18] gave a half-inhibitory concentration (IC50) in the assay on H-ras of over 50 µM.

In the assay with H-ras, `COC(=O)[C@H](CCSC)NC(=O)c1ccc(OC/C=C/[C@@H](N)CS)cc1` [Compound 21] displayed a concentration for half-maximal inhibition (IC50) of over 50 µM.

For `CSCCC(NC(=O)c1ccc(OC[C@@H](/C=C/[C@@H](N)CS)C(C)C)cc1)C(=O)O` (stereo partly drawn) [Compound 5], the IC50 on FTase turned out to be 6.3 µM; on GGTase I, 40 µM.

On to `CSCC[C@H](NC(=O)c1cc(OCC[C@@H](N)CS)ccc1C(C)C)C(=O)O` [Compound 11], for which the IC50 on FTase is 0.021 µM; at GGTase I it was 0.39 µM.

As for `CSCC[C@H](NC(=O)c1cc(OCC[C@@H](N)CS)ccc1-c1ccccc1)C(=O)O` [Compound 12], the half-maximal inhibitory concentration (IC50) was 0.004 µM on FTase and 0.038 µM at GGTase I.

Take `CSCC[C@H](NC(=O)c1ccc(OC/C=C/[C@@H](N)CS)cc1)C(=O)O` [Compound 8]: the IC50 was 0.89 µM at FTase and over 100 µM at GGTase I.
